“And” between values parts separate entries of the source, which are not always exact repeats. Equal entries are not always repeated. “Also recorded” adds a separate entry of the source.
Assays:
[1] = system: cell culture; assay: Cytotoxicity in cell culture
[2] = system: Lewis lung carcinoma; assay: Antitumor activity against Lewis lung carcinoma, Example 12 (Table 1); assay type: in vivo, B6 D2 F1 male mice; details: for Treated Group Survival Time: median, control 19.0, 60-day test
Protocol: (§1) As illustrative examples of the antitumor use of COMPOUNDS 1 and 2, Examples 12 through 14, below, are given. […] The tests utilized in these illustrative examples were conducted by the Developmental Therapeutics Program, Division of Cancer Treatment, National Cancer Institute. The tests were supervised by this agency utilizing their standard protocols and procedures. All tests conformed to these protocols and all tests were evaluated under the criteria defined by these protocols. The following representative examples illustrate confirmed activity of the illustrative compounds of the invention against screening tumor systems of the National Cancer Institute.
(§2) For purposes of the following examples, the abbreviation IP stands for intraperitoneal and IV stands for intravenous. The mean and median survival times are calculated in instruction 14 (revised 6/78) of the Screening Data Summary, Developmental Therapeutics Program, Division of Cancer Treatment, National Cancer Institute. The contents of this Screening Data Summary including appropriate revisions are herein incorporated by reference.
(§3) In the illustrated examples below, the vehicle used as carrier for the drug was injected (minus any drug therein) into the control animals at the same level of use of the vehicle in the drug treated animals in order to eliminate any vehicle effect of the tests.
For example 12, B6 D2 F1 male mice were used and challenged with Lewis lung carcinoma. The median survival time of the test animals was compared to that of appropriate control animals.
In Example 12, forty control animals and ten test animals were used, each at dose levels indicated below in Table 1. For both the control group and the drug treated group, tumors were induced by IV injection on day zero followed by initiation of drug treatment on day one. For Example 12 water was used as the drug vehicle.
In both the control group and the drug treated group in Example 12, the animals were inoculated on day zero with a homogenate of 10^6 seed cells of Lewis lung carcinoma. For Example 12, drug treatment was started on day one and COMPOUND 1 given once daily for nine days. Day five was utilized as the cut-off date for deaths attributable to toxicity of the drug. […] Efficacy of treatment was determined by comparing median survival time of the control animals and is expressed as percentage increase of treated animals/control animals (T/C).
The test period was for sixty days and at the end of the sixty day period all animals surviving in the test groups were evaluated as either cured, no-takes, or tumor survivors.
In this example, the drug tested animals were injected IP with the dose level noted in Table I below. Ten animals were treated at each dose level. No control animals survived beyond day 23 with a median death rate of day 19.0.

[3] = system: Lewis lung carcinoma; assay: Lewis lung in vivo mouse model, low doses, Example 13 (Table III); set-up: species or system B6 D2 F1 female mice; details: for Treated Group Survival Time: control 20.2
Protocol: as §1, §2, §3
COMPOUND 1 was further tested in a Lewis lung in vivo mouse model using B6 D2 F1 female mice challenged with Lewis lung carcinoma.

[4] = system: Lewis lung carcinoma; assay: Antitumor activity against Lewis lung carcinoma, Example 13 (Table II); assay type: in vivo, B6 D2 F1 female mice; details: for Treated Group Survival Time: median, control 16.9
Protocol: as §1, §2, §3
In this example COMPOUND 1 was tested in B6 D2 F1 female mice challenged with Lewis lung carcinoma. The median survival time of the test animals was compared to that of appropriate control animals.

[5] = system: L-1210; assay: Growth inhibition in suspension cell culture, L-1210; assay type: cell-based; details: Mus musculus, L1210, 72 hours, cell count 50 percent of untreated control, read-out: ID50 (the source's name)
Protocol: In further tests, growth-inhibitory effects of COMPOUND 1 and COMPOUND 2 were measured against 3 mouse tumor lines in suspension cell culture. Cell cultures were initiated at a density of 50,000 cells/ml in medium RPMI 1630 supplemented with 10 percent fetal calf serum. Composition of this culture medium and details of the culture procedure followed the published method (G. E. Moore, A. A. Sandberg and K. Ulrich, Suspension Cell Culture and in vivo and in-vitro chromosome constitution of mouse leukemia L1210, Journal of the National Cancer Institute 36, 405-415, 1966). Cultures were maintained at 37 degrees in stationary suspension culture under a 95 percent air+5 percent CO2 atmosphere. Test compounds were added to treated cultures at the time of initiation, and were present continually. After 72 hours, 40-fold dilutions of drug-treated and untreated control cultures were prepared in 0.9 percent NACl solution, and cells were counted on an electronic particle counter. The growth-inhibitory effects are expressed as ID50 values, namely, test compound inhibitory dosages or concentrations required to decrease cell count in treated cultures to 50 percent of the cell count of untreated control cultures.

[6] = Solubility in aqueous media
[7] = 3 mg/kg IP once daily for nine days
[8] = 6 mg/kg IP once daily for nine days
[9] = 9 mg/kg IP once daily for nine days
[10] = 13 mg/kg IP once daily for nine days
[11] = 20 mg/kg IP once daily for nine days
[12] = 33 mg/kg IP once daily for nine days
[13] = 50 mg/kg IP once daily for nine days
[14] = 75 mg/kg IP once daily for nine days
[15] = 12 mg/kg (12.50 mg/kg in source)

Q: What does the source list for `NC(=O)c1c[se]c([C@@H]2O[C@H](CO)[C@@H](O)[C@H]2O)n1` [COMPOUND 1, 2-β-D-ribofuranosylselenazole-4-carboxamide]?
A: cytotoxicity in words [1]: low cytotoxicity; Cures [2, 7]: One and 1/10; Percent Treated Animal/Control Animal (T/C) [2, 7]: 152%; Treated Group Survival Time [2, 7]: 28.9; Cures [2, 8]: 1/10; Treated Group Survival Time [2, 8]: 12.0; Cures [2, 9]: 3/10; Treated Group Survival Time [2, 9]: 10.4; Cures [2, 10]: 5 out of 10 and 5/10; Percent Treated Animal/Control Animal (T/C) [2, 10]: 315%; Treated Group Survival Time [2, 10]: 60.0; Cures [2, 11]: 2/10; Treated Group Survival Time [2, 11]: 16.0; Cures [2, 12]: 3/10; Percent Treated Animal/Control Animal (T/C) [2, 12]: 94%; Treated Group Survival Time [2, 12]: 18.0; Cures [2, 13]: 1/10; Percent Treated Animal/Control Animal (T/C) [2, 13]: 94%; Treated Group Survival Time [2, 13]: 18.0; Cures [2, 14]: 7 out of 10 and 7/10; Percent Treated Animal/Control Animal (T/C) [2, 14]: 315%; Treated Group Survival Time [2, 14]: 60.0; survival of treated animals in words ([2]; 75 and 13 mg/kg IP): all of the treated animals survived; antitumor activity in words ([2]; Lewis lung carcinoma, mice): active against Lewis lung carcinoma; also recorded: outstanding activity against Lewis lung carcinoma; mortality attributable to drug toxicity ([2]; cut-off day five, 3-75 mg/kg IP once daily): no mortality attributable to drug toxicity; DN2 criteria of NCI ([2]; mouse, in vivo): successfully passed the DN (decision network) 2 criteria; also recorded: DN2 criteria of NCI were passed; Cures ([3]; 0.75 mg/kg): 0/10; Percent Treated Animals/Control Animals (T/C) ([3]; 0.75 mg/kg): 107%; Treated Group Survival Time ([3]; 0.75 mg/kg): 21.7; Cures ([3]; 1.50 mg/kg): 0/10; Percent Treated Animals/Control Animals (T/C) ([3]; 1.50 mg/kg): 110%; Treated Group Survival Time ([3]; 1.50 mg/kg): 22.3; Cures ([3]; 3.00 mg/kg): 0/10; Percent Treated Animals/Control Animals (T/C) ([3]; 3.00 mg/kg): 153%; Treated Group Survival Time ([3]; 3.00 mg/kg): 31.0; DN2 level activity ([3]; 3 mg/kg, percent T/C greater than 150): achieved DN2 level activity; Cures ([3]; 6.00 mg/kg): 5 out of 10 and 5/10; Percent Treated Animals/Control Animals (T/C) ([3]; 6.00 mg/kg): 297%; Treated Group Survival Time ([3]; 6.00 mg/kg): 60.0; Cures ([3]; 12.00 mg/kg): 9/10; Percent Treated Animals/Control Animals (T/C) ([3]; 12.00 mg/kg): 297%; Treated Group Survival Time ([3]; 12.00 mg/kg): 60.0; Cures ([3]; 24.00 mg/kg): 9 out of 10 and 9/10; Percent Treated Animals/Control Animals (T/C) ([3]; 24.00 mg/kg): 297%; Treated Group Survival Time ([3]; 24.00 mg/kg): 60.0; antitumor activity in words ([3]; mouse, in vivo): effective antitumor agent; Cures [4, 15]: 8 out of 10 and 8/10; Percent Treated Animals/Control Animals (T/C) [4, 15]: 355%; Treated Group Survival Time [4, 15]: 60.0; Cures ([4]; 25 mg/kg): 7 out of 10 and 7/10; Percent Treated Animals/Control Animals (T/C) ([4]; 25 mg/kg): 355%; Treated Group Survival Time ([4]; 25 mg/kg): 60.0; Cures ([4]; 50 mg/kg): 6 out of 10 and 6/10; Percent Treated Animals/Control Animals (T/C) ([4]; 50 mg/kg): 355%; Treated Group Survival Time ([4]; 50 mg/kg): 60.0; Cures ([4]; 100 mg/kg): 3/10; Percent Treated Animals/Control Animals (T/C) ([4]; 100 mg/kg): 120%; Treated Group Survival Time ([4]; 100 mg/kg): 20.3; Cures ([4]; 200 mg/kg): 0/10; Treated Group Survival Time ([4]; 200 mg/kg): 10.7; survival of test animals in words ([4]; 50, 25 and 12.50 mg/kg): all of the test animals survived; antitumor activity in words ([4]; median survival time versus control): effective antitumor agent; IC50 [5]: 0.4 µM; solubility in aqueous media [6]: soluble in aqueous media
